In patent US20130158024A1, “TRICYCLIC NECROSTATIN COMPOUNDS” (priority 2005, published 2013):

Assays:
SH-SY5Y cells [1] = test: MPP+ cytotoxicity in SH-SY5Y neuroblastoma cells in the presence of zVAD, ATP assay; assay type: cell-based, human; conditions: zVAD 100 μM, compound 30 μM, 72 hours
Method: FIG. 15 is a chart showing that necrostatins attenuate MPP^+ cytotoxicity in human SH-SY5Y neuroblastoma cells. Cells were treated with 5 mM MPP^+ in the presence or absence of 100 μM zVAD.fmk and 30 μM necrostatins for 72 hours, followed by an ATP assay. Values represent cell viability normalized to the corresponding compound treated controls not treated with MPP^+.
(§1) FIG. 35A is a graph showing the results of treating SH-SY5Y cells with 1 mM MPP+ in the presence of zVAD (100 μM) and compound (19) (30 μM) for 72 hours. Cell viability was determined using an ATP assay. FIG. 35B is a graph as in FIG. 35A, in which cells were treated in the presence of 100 μM amyloid-beta 25-35 protein rather than MPP+.

Jurkat T cells = test: Necrosis (CICD) of Jurkat T cells induced by Fas ligand, cycloheximide and zVAD, ATP assay; assay type: cell-based, human; conditions: FasL/CHX/zVAD
Method: Jurkat cells were treated with 5 ng/ml of FasL without (A) or with cyclohexamide (CHX) (B) to induce apoptosis, or 5 ng/ml FasL, 1 μg/ml of CHX and 100 μM of zVAD.fmk to induce CICD (B). […] Cell viability was determined after 24 hours of incubation with indicated reagents using CellTiter-Glo ATP assay. The values represent viability relative to the control Jurkat cells without the treatment of FasL, which was set as 100% viability.
FIG. 34A is a graph showing the results of treating Jurkat T cells with Fas ligand (5 ng/ml), cyclohexamide (1 μg/ml) and zVAD (100 μM) in the presence of the indicated amounts of anti-necrotic compounds (4) and (5). Viability was determined 36 hours later using an ATP assay. The viability values are relative to the samples lacking Fas ligand, which were used as 100% viability controls. FIG. 34B is a graph as in FIG. 34A, in which the anti-necrotic compounds are (19) and (20).
Compounds were also tested in another necrosis assay utilizing human Jurkat T cells, Fas ligand to induce cell death, and zVAD to inhibit the apoptosis pathway. After 36 hours, cell viability was measure by the commercial CellTiter ATP cell viability assay (Promega).

SH-SY5Y cells [2] = test: Amyloid-beta 25-35 toxicity in SH-SY5Y cells in the presence of zVAD, ATP assay; assay type: cell-based, human; conditions: 100 μM amyloid-beta 25-35, zVAD 100 μM, compound 30 μM, 72 hours
Method: as §1
To further verify that (19) can protect neuronal cells from necrosis, it was tested using two different neurotoxins in the human neuroblastoma cell line SH-SY5Y in the presence of zVAD. Cell death was induced by β-amyloid, a cellular model of Alzheimer's disease, and […] (MPP+), a cellular model of Parkinson's disease.

[3] = tested on: Jurkat cells expressing dimerizable FADD; conditions: Homo sapiens, Jurkat, 36 h
[4] = tested on: Jurkat cells expressing dimerizable FADD; test: Toxicity of compound alone in Jurkat cells expressing dimerizable FADD (no dimerizer); conditions: compound in the absence of dimerizer

SMILES	attenuation of MPP+ cytotoxicity, in words (SH-SY5Y cells [1])	inhibition of CICD/necrosis of Jurkat cells, in words (Jurkat T cells)	reduction of β-amyloid toxicity in SH-SY5Y, in words (SH-SY5Y cells [2])	EC50 [3] [µM]	LD50 [4] [µM]
COc1ccc([C@H]2[C@H]3CCc4ccc(OC)cc4C3=NN2C(C)=O)cc1 (relative stereo) [Compound 141, (3R,3aR)-rel-2-acetyl-3,3a,4,5-tetrahydro-3-(4-methoxyphenyl)-8-methoxy-2H-benz[g]indazole]	effective in reducing toxicity as measured by cellular ATP levels	efficiently inhibit necrosis and result in high cell viability	effective in reducing toxicity as measured by cellular ATP levels	–	–
Cc1cc(O)c(C(=O)/C=C/c2ccc(O)c([N+](=O)[O-])c2)c(=O)o1 [Nec-2]	especially pronounced in case of Nec-2	–	–	27.3	134
